Converted amounts (≈) assume the structure as drawn. Read-outs that look alike come from different tables or passages of the source.
Experiments:
T. b. brucei GVR35 = assay: Stage II HAT mice model, live imaging; type: in vivo
[1] = system: L. infantum intracellular amastigotes LEM235; assay: Anti-leishmanial activity, L. infantum LEM235 intracellular amastigotes; type: cell-based; conditions: for IC50: Leishmania infantum, read-out: L. infantum intracellular amastigotes LEM235 IC50 ± SEM
From the text: (§1) The in vitro antiparasitic activity of compound 5-cyclopentadecylpentyl (2-(trimethylammonio)ethyl) phosphate (19) against L. infantum (2 species), L. amazonensis, L. donovani and L. major is presented in Table 3, as well as the toxicity against the human monocytic cell Line THP1 and PMA-differentiated THP-1 cells.

[2] = system: L. infantum (MHOM/MA/67/ITMAP-263) intracellular amastigotes; assay: Anti-parasitic activity against L. infantum intracellular amastigotes (infection with axenic amastigotes luciferase positive); type: cell-based
CYP2C19 = CYP2C19 (Homo sapiens, UniProt P33261); assay: Early toxicity: CYP2C19 inhibition; type: in vitro ADME; conditions: human, mean ± SD, Table 4a
CYP1A2 = biological target: T1, CYP1A2 (Homo sapiens, UniProt P05177); assay: Early toxicity: CYP1A2 inhibition; type: in vitro ADME; conditions: human, mean ± SD, Table 4a
T1 sequence (P05177 1-516): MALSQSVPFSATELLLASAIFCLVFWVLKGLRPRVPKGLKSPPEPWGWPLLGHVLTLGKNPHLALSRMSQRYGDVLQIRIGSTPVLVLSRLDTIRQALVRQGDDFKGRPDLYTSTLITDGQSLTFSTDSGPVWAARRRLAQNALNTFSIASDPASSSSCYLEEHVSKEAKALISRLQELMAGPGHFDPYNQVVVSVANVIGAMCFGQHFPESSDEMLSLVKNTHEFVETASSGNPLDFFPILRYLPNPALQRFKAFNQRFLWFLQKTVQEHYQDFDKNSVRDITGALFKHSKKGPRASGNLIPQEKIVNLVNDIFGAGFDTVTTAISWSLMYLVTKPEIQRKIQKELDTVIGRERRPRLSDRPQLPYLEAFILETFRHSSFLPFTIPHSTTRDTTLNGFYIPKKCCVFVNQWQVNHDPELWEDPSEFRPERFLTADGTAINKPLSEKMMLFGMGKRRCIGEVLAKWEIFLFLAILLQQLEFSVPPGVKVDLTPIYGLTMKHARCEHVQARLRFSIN

[3] = system: T. b. brucei L427 WT Blood-Stream Form; assay: Anti-parasitic activity against T. b. brucei blood-stream form (resazurin 72 h assay); type: cell-based; conditions: for IC50: 72 h, read-out: Dose Response Curves IC50 ± SD (μM)
Leishmania infantum [4] = assay: Efficacy in mice infected with Leishmania infantum, 21-day treatment, limiting dilution assay; type: in vivo, BALB/c mice
Procedure: The rationale for the choice of four doses was to enable dose dependent information in activity and toxicity. The wait period of 15 days after treatment end enabled the follow up of reappearance of infection and also the determination of the time dependent compound elimination. […] Three days after the last treatment the mice were euthanized and parasite burden (log number of parasites/mg of organ) was evaluated by limiting dilution assay, essentially as described in Tavares. J. et al (Methods Mol Biol, 2019; 1971:289-301), in the spleen (FIG. 2B) and in the liver (FIG. 2C). Data represent the mean±SD, *p<0.05, **p<0.01 (One way ANOVA with Dunnett's test) in comparison with the untreated group.

[5] = Apparent solubility by nephelometry; type: physicochemical; conditions: kinetic from dmso stock
HDAC8 = HDAC8 (Homo sapiens, UniProt Q9BY41); assay: HDAC8 activity inhibition; type: biochemical
A549 = assay: Early toxicity: A549 cell growth; type: cell-based; conditions: for Avg % Cell growth A549: Table 5
[6] = system: L. major SASKH intracellular amastigotes; assay: Anti-leishmanial activity, L. major intracellular amastigotes; type: cell-based; conditions: Leishmania major; read-out: L. major SASKH intracellular amastigotes IC50 ± SEM
From the text: as §1

[7] = system: PMA-differentiated THP-1 cells; assay: Toxicity MTT assay in PMA-differentiated THP-1 cells; type: cell-based, human; conditions: for Toxicity MTT assay in PMA-differentiated THP-1 cells: Table 5
From the text: (§2) The in vitro antiparasitic activity against L. infantum (MHOM/MA/67/ITMAP-263) and the toxicity against THP-1 macrophages is presented in Table 1.

[8] = as above; type: cell-based, human; conditions: human, PMA-differentiated THP-1 cells (macrophages); for CC50: THP-1 macrophages, Table 1, read-out: Toxicity CC50 ± SD or NOAEL; for IC50: Table 4b, read-out: Cytotoxicity THP-1 (IC50)
From the text: as §2

W1-38 = assay: Early toxicity: W1-38 cell growth; type: cell-based; conditions: for Avg % Cell growth W1-38: Table 5
[9] = Gel formation in saline solutions of NaCl; type: physicochemical; conditions: same conditions
Procedure: This effect is more pronounced at concentrations between 7 and 40 mg/mL at a temperature range between 20° C. and 40° C., preferably at ambient temperature. The homogeneity of the product facilitates homogeneity of dosing, i.e, variability among doses is lower, easy administration of the compound and higher patient acceptability.

Leishmania infantum [10] = assay: Efficacy in mice infected with Leishmania infantum, 10-day treatment; type: in vivo, BALB/c mice; conditions: 10 consecutive days; for parasite burden in the spleen: 20 mg/kg and 10 mg/kg
Procedure: (A) Experimental approach; (B) and (C) are graphic presentations of parasite burden in the spleen and the liver, respectively, evaluated by limiting dilution assay.
The treatments were reduced to 10 consecutive days at doses of 2.5, 5, 10 or 20 mg/Kg/day (FIG. 3).

HDAC9 = HDAC9 (Homo sapiens, UniProt Q9UKV0); assay: HDAC9 activity inhibition; type: biochemical
[11] = system: L. amazonensis intracellular amastigotes; assay: Anti-leishmanial activity, L. amazonensis intracellular amastigotes; type: cell-based; conditions: Leishmania amazonensis
From the text: as §1

Sequence of HDAC9 (Q9UKV0 whole entry, species assumed): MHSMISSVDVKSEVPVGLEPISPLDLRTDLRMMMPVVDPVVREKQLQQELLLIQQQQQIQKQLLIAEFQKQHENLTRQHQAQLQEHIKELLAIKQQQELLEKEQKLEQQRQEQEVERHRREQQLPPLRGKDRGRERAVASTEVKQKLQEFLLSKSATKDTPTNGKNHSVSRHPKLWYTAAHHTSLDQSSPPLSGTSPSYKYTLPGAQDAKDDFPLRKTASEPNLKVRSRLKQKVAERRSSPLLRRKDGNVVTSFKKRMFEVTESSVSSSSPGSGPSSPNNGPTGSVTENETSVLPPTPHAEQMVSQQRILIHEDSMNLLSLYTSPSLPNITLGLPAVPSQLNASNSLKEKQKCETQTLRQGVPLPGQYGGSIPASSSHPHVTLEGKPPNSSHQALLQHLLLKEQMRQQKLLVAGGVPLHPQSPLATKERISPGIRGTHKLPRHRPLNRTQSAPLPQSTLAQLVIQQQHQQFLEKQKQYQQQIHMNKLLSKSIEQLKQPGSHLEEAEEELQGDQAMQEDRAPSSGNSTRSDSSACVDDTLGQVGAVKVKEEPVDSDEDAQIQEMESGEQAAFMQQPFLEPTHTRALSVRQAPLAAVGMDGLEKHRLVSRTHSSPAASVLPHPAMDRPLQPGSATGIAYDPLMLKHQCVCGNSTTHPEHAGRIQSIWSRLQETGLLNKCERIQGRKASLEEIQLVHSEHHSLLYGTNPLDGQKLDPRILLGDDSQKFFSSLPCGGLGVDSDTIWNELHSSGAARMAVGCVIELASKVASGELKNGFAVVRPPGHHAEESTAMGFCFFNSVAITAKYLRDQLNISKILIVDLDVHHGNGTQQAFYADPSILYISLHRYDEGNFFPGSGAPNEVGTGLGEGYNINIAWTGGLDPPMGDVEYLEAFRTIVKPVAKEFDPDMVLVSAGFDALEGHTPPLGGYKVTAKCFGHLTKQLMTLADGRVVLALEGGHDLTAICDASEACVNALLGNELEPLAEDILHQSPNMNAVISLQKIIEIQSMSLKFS
Sequence of CYP2C19 (P33261 whole entry): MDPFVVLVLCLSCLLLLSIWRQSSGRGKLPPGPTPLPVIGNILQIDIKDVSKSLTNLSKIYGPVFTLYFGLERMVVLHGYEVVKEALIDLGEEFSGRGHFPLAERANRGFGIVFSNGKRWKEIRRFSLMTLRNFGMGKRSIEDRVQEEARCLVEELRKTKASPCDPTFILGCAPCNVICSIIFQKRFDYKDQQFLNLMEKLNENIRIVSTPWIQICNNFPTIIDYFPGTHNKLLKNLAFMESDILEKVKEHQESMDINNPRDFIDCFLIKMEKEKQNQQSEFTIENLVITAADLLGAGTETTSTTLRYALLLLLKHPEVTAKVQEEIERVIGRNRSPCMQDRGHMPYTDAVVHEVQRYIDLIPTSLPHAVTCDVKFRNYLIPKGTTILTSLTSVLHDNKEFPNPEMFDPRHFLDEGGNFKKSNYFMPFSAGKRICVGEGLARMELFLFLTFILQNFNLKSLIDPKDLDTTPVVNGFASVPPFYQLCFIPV
Sequence of HDAC8 (Q9BY41 whole entry, species assumed): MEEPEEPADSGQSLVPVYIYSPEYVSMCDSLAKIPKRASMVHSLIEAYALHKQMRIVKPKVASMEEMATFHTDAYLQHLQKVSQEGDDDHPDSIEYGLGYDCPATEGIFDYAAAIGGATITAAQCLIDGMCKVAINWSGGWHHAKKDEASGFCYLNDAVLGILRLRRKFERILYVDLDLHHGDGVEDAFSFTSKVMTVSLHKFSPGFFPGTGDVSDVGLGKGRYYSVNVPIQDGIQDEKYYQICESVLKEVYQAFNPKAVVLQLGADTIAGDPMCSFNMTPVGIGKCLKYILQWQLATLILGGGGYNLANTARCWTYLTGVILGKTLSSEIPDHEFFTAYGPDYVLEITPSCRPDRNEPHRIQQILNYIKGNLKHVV

For `CCCCCCCCCCCCCCCCOP(=O)([O-])OCC[N+](C)(C)C` [Miltefosine, hexadecylphosphocholine, reference compound], the “infection outcome (words)” value (T. b. brucei GVR35; miltefosine treated animals, sacrificed after 7 treatments) was “no reduction in infection”, the “weight loss associated to the treatment” value (T. b. brucei GVR35; miltefosine treated infected animals) was “constant weight loss” and the IC50 [1] was 6.7 ± 1 µM. For the same compound, the IC50 ([2]; Leishmania infantum, read-out: Dose Response Curves IC50 ± SD (μM)) was 2.51 ± 1.73 µM, the IC50 ([2]; Leishmania infantum, read-out: L. infantum intracellular amastigotes (MHOM/MA/67/ITMAP-263) IC50 ± SEM (μM)) was 3.2 ± 1.4 µM and the inhibition at 10 µM (CYP2C19) was 7.92 ± 15.5%. The inhibition at 10 µM (CYP1A2) was -20.6 ± 11.8%, the IC50 ([3]; Trypanosoma brucei) was 33.9 ± 0.5 µM and the “parasite burden reduction, liver” value (Leishmania infantum [4]; miltefosine 2.5 mg/kg, 21 consecutive days) was 98%. For the same compound, the “parasite burden in the spleen” value (Leishmania infantum [4]; miltefosine 10 mg/kg, oral gavage, 21 consecutive days) was “one of the animals presented detected parasites in the spleen”, the “parasite burden” value (Leishmania infantum [4]; miltefosine 20 mg/kg, oral gavage, 21 consecutive days) was “maintained parasite burden under the detection limit” and the “parasite burden in the liver” value (Leishmania infantum [4]; miltefosine 20, 10, 5 mg/kg, 21 consecutive days) was “parasite burdens under the detection limit”. For the same compound, the “parasite burden reduction, spleen” value (Leishmania infantum [4]; miltefosine lower doses (5 and 2.5 mg/kg), 21 consecutive days) was “more than 99%”, the solubility ([5]; pH 1.6, simulated gastric fluid) was 12.5 µM (≈ 5.09 µg/mL) and the solubility ([5]; pH 5, fessif) was over 100 µM. For the same compound, the solubility ([5]; pH 6.5, fassif) was over 100 µM, the solubility ([5]; pH 7.4, aqueous buffer) was 25 µM (≈ 10.2 µg/mL) and the solubility ([5]; water) was 25 µM (≈ 10.2 µg/mL). The “inhibition of the activity of HDAC8” value (HDAC8; 10 μM) was “did not inhibit”, the “Avg % Cell growth A549” value (A549; 10 μM) was 95.80 ± 15.78 (10 μM) % and the “% cell growth A549” value (A549; at 1 μM) was 95.8 ± 15.78%. For the same compound, the IC50 [6] was 43.7 ± 8.34 µM, the “Toxicity MTT assay in PMA-differentiated THP-1 cells” value [7] was 15.9 ± 1.2 µM and the CC50 [8] was 15.9 ± 1.2 µM. The IC50 [8] was 15.9 ± 1.2 µM, the “Avg % Cell growth W1-38” value (W1-38; 10 μM) was 113.50 ± 26.66 (10 μM) % and the “% cell growth W1-38” value (W1-38; at 1 μM) was 113.5 ± 26.66%. For the same compound, the “gel formation” value [9] was “not observed”, the “reduction of parasite burden, spleen” value (Leishmania infantum [10]; 2.5 mg/kg) was 64±33% and the “reduction of parasite burden, spleen” value (Leishmania infantum [10]; 5 mg/kg) was 70±36%. For the same compound, the “parasite burden in the spleen” value (Leishmania infantum [10]) was “not able to maintain parasite burden under the detection limit”, the “average reduction of parasite load, spleen” value (Leishmania infantum [10]; 20 and 10 mg/kg) was over 99% and the “reduction of average parasite burden, liver” value (Leishmania infantum [10]; all tested concentrations) was “more than 98%”. For the same compound, the “inhibition of the activity of HDAC9” value (HDAC9; 10 μM) was “did not inhibit” and the IC50 [11] was 14.2 µM.

For `C[N+](C)(C)CCOP(=O)([O-])OCCCCCC1CCCCCCCCCCCCCC1` [Compound 19, 5-cyclopentadecylpentyl (2-(trimethylammonio)ethyl) phosphate], the “average reduction of signal (average radiance) in the brain region” value (T. b. brucei GVR35; 50 mg/kg daily for 13 days, compared to beginning of treatment (day 21)) was 99.96%, the reduction of infection (T. b. brucei GVR35; 50 mg/kg/day PO, 13 days) was over 99% and the “signal in the region of the brain lost” value (T. b. brucei GVR35; after 4 treatments (day 25), 50 mg/kg daily) was 99.95%. For the same compound, the “overall and brain infection” value (T. b. brucei GVR35; compound 19 50 mg/kg/day PO) was “able to significantly reduce the overall infection and also in the brain”, the IC50 [1] was 0.7 ± 0.4 µM and the “Selectivity Index CC50/IC50” value ([1]; THP1 CC50 / IC50 L. infantum LEM235) was 714. It also gave an inhibition at 10 µM ([2]; Leishmania infantum, 10 μM, Table 1, read-out: Single Dose Assay 10 μM Mean Inhibitory Activity (%) ± SD) of 78 ± 2%, an IC50 ([2]; Leishmania infantum, Table 1, read-out: Dose Response Curves IC50 ± SD) of 1.4 ± 0.1 µM and an IC50 ([2]; Leishmania infantum, Table 3, read-out: L. infantum intracellular amastigotes (MHOM/MA/67/ITMAP-263) IC50 ± SEM) of 1.4 ± 0.1 µM. The “Selectivity Index CC50/IC50 or NOAEL/IC50” value ([2]; PMA-differentiated THP-1 CC50 / IC50 L. infantum MHOM/MA/67/ITMAP-263, Table 3) was over 71, the “Selectivity Index CC50/IC50 or NOAEL/IC50” value ([2]; THP-1 toxicity / L. infantum IC50, Table 1) was over 71 and the inhibition at 10 µM (CYP2C19) was -18.2 ± 7.01%. The inhibition at 10 µM (CYP1A2) was -32.1 ± 9.3%, the “activity against T. b. brucei blood-stream form” value ([3]; Table 2) was “unexpectedly high activity in the low micromolar range” and the IC50 ([3]; Trypanosoma brucei) was 4.47 ± 0.2 µM. The inhibition at 10 µM ([3]; Trypanosoma brucei, read-out: Single Dose Assay 10 μM Mean Inhibitory Activity (%) ± SD) was 99 ± 1%, the “Selectivity Index CC50/IC50 or NOAEL/IC50” value ([3]; toxicity / T. b. brucei IC50, Table 2) was over 22 and the “average reduction of parasite burden, spleen” value (Leishmania infantum [4]; compound 19 2.5 mg/kg every other day for 21 days) was 98%. The “parasite burden, spleen and liver” value (Leishmania infantum [4]; compound 19 every other day for 21 days, 20, 10, 5, 2.5 mg/kg, except 2.5 mg/kg in the spleen) was “maintained parasite burden under the detection limit”, the solubility ([5]; FaSSIF, pH 6.5, fassif, read-out: Solubility in FaSSIF (pH = 6.5)) was over 100 µM and the solubility ([5]; FeSSIF, pH 5, fessif, read-out: Solubility in FeSSIF (pH = 5)) was over 100 µM. It also gave a solubility ([5]; PBS, pH 7.4, aqueous buffer, read-out: Solubility in PBS (pH = 7.4)) of under 10 µM, a solubility ([5]; simulated gastric fluid (SGF), simulated gastric fluid, SGF, pH 1.6, read-out: Solubility in SGF (pH = 1.6)) of 12.5 µM and a solubility ([5]; water, H2O, read-out: Solubility in H2O) of under 10 µM. For the same compound, the “effect on HDACr” value (HDAC8; 100 μM) was “not considered significant”, the “% cell growth A549” value (A549; 10 μM, 100% = not cytotoxic, 0% = cytostatic, −100% = cytotoxic) was 108.28 ± 0.09% and the “Avg % Cell growth A549” value (A549; 10 μM) was 108.28 ± 0.09 (10 μM) %. It also gave an IC50 [6] of 15.5 ± 1.5 µM, a CC50 ([7]; MTT assay in PMA-differentiated THP-1 cells, Table 3, read-out: Toxicity CC50 ± SD) of over 100 µM and a CC50 ([7]; Table 2, read-out: Toxicity CC50 ± SD or NOAEL) of over 100 µM. For the same compound, the “Toxicity MTT assay in PMA-differentiated THP-1 cells” value [7] was over 100 µM, the CC50 [8] was over 100 µM and the IC50 [8] was over 100 µM. For the same compound, the “% cell growth W1-38” value (W1-38; 10 μM) was 95.66 ± 19.68%, the “Avg % Cell growth W1-38” value (W1-38; 10 μM) was 95.66 ± 19.68 (10 μM) % and the “gel formation” value [9] was “homogeneous gel product”. For the same compound, the “reduction of parasite burden, spleen” value (Leishmania infantum [10]; 2.5 mg/kg) was 91±6%, the “reduction of parasite burden, spleen” value (Leishmania infantum [10]; 5 mg/kg) was 99±1% and the “parasite burden in the spleen” value (Leishmania infantum [10]) was “able to maintain parasite burden below the detection limit”. The “parasite load in the liver” value (Leishmania infantum [10]; all treatments (20, 10, 5, 2.5 mg/kg)) was “maintained the parasite load under the detection limit”, the “inhibition of the activity of HDAC9” value (HDAC9; 100 μM) was “does not inhibit” and the IC50 [11] was 5.4 µM.

Source: patent publication US20230365602A1, “COMPOUND FOR USE IN THE TREATMENT OF PROTOZOAL DISEASES AND PROCESS FOR PRODUCTION OF SAID COMPOUND” (QUADREL S.R.L., priority 2020, published 2023)
